Values quoted from earlier work in patent US20100120733A1, “STEROID MODULATORS OF GLUCOCORTICOID RECEPTOR” (AUSPEX PHARMACEUTICALS, INC., priority 2008, published 2010).

Conditions: pooled data

## CC(C)C(=O)OCC(=O)[C@@]12O[C@H](C3CCCCC3)O[C@@H]1C[C@H]1[C@@H]3CCC4=CC(=O)C=C[C@]4(C)[C@H]3[C@@H](O)C[C@@]12C [ciclesonide, 16,17-[[(R)-cyclohexylmethylene]bis(oxy)]-11-hydroxy-21-(2-methyl-1-oxopropoxy)-(11-beta,16-alpha)-pregna-1,4-diene-3,20-dione]
  elimination half-life: 0.71 h

## C[C@]12C=CC(=O)C=C1CC[C@@H]1[C@@H]2[C@@H](O)C[C@@]2(C)[C@H]1C[C@H]1O[C@@H](C3CCCCC3)O[C@]12C(=O)CO [des-CIC, desisobutyryl-ciclesonide]
  elimination half-life: 3.5 h
